Source: publication PMC9697519, “New Theonellapeptolides from Indonesian Marine Sponge Theonella swinhoei as Anti-Austerity Agents” (Marine Drugs, 2022)
Where two headings read alike, the source gives them in different places. Where a SMILES comes first, the peptide text is derived from it. Bridges are numbered along the chain shown (N, C = ends). [ ]: non-standard residue; d: D form. The star is where a group is joined. dNMeaIle = CC[C@H](C)[C@@H](NC)C(=O)O; d(aIle) = CC[C@H](C)[C@@H](N)C(=O)O; NMeI = CC[C@H](C)[C@H](NC)C(=O)O; dNMeL = CN[C@H](CC(C)C)C(=O)O; NMeV = CN[C@H](C(=O)O)C(C)C; Methoxyacetyl = COCC(=O)*; βAla = NCCC(=O)O

Legend:
[1] = system: HepG2 (human liver cancer cells); conditions: 24 h
Description: (§1) Finally, the anti-austerity activity on two other different cancer cell lines was studied. Preferential cytotoxicity was assessed in a nutrient-deprived medium. Esumi et al. hypothesized that tolerance to nutrient deprivation as well as angiogenesis might be an important factor in tumor progression under hypovascular condition.
(§2) Briefly, MIA PaCa-2, HepG2 and MCF-7 Cells (2 × 10^4 cells/well) were seeded in 96-well plates and incubated in fresh DMEM. The cells were washed with Dulbecco’s phosphate-buffered saline (PBS) before the medium was replaced with DMEM or NDM containing serial dilutions of the test samples. After 24 h of incubation, the cells were washed with PBS, and 100 μL of DMEM containing 10% WST-8 cell counting kit solution was added to each well. After 3 h of incubation, the absorbance was measured at 450 nm. Cell viability was calculated from the mean values for three wells. The preferential cytotoxicity was expressed as the concentration at which 50% of cells died preferentially in NDM (PC50).

[2] = system: MCF-7 (human breast cancer cells); conditions: 24 h
Description: as §1, §2

[3] = system: Kocuria rhizophila NBRC 12708; conditions: NBRC 12708, 22 h
Description: (§3) Previously, three theonellapeptolide members capped with a unique acyl group at their N-termini such as methylsulfinylacetyl, methylsulfanylacetyl, and acetyl were isolated by Tsuda et al. from Okinawan marine sponge Theonella sp.. Furthermore, the antibacterial activity of these variants was evaluated against four bacterial and six fungal strains. […] To the best of our knowledge, there is no report on the antibacterial activity of theonellapeptolides with methoxyacetyl group. This encouraged us to investigate the antibacterial activity of 1–6 against the Gram-negative bacterium Escherichia coli JW5503 and the Gram-positive bacteria Bacillus cereus NBRC 15305 and Kocuria rhizophila NBRC 12708.
(§4) After incubation for 22 h (30 °C), the obtained optical density was recorded using Tecan infinite® M200 plate reader at 600 nm to determine percent growth inhibition.

[4] = system: Bacillus cereus NBRC 15305; conditions: NBRC 15305, 22 h
Description: as §3, §4

[5] = system: Escherichia coli JW5503; conditions: JW5503, 22 h
Description: as §3, §4

[6] = system: human pancreatic cancer cell line MIA PaCa-2; conditions: 24 h
Description: Data are presented as preferential cytotoxicity (PC50) values, which represent the concentration that kills 50% of cancer cells in a nutrient-deprived medium (NDM) without any toxicity in a nutrient-rich medium DMEM (Dulbecco’s Modified Eagle Medium).
as §2
Pancreatic cancer cells (MIA PaCa-2 cells) were kindly provided by Dr. Suresh Awale, an Associate Professor at Institute of Natural Medicine, University Toyama, Toyama, Japan. MIA PaCa-2 (RBRC-RCB2094), human pancreatic cancer cell lines were purchased from Riken BRC cell bank.

[7] = system: MIA PaCa-2 cells; assay: Morphological analysis, EB/AO double-staining; format: cell-based, human; conditions: 5 and 10 μM, NDM, 24 h, 24-well plate
Description: Thus, more detailed studies were performed on the major compound theonellapeptolide IId (4). Its effect on morphology status of MIA PaCa-2 cells under starvation condition was studied using a double-staining assay with EB (ethidium bromide) and AO (acridine orange). The membranes of dead or dying cells are penetrated by EB and staining in red while living cells are stained by AO, a cell-membrane-permeable dye emitting bright green fluorescence. Both AO and EB stains are known as DNA-intercalating agents. During cell death, EB and AO enter into the cell after the integrity of the cell membrane is disrupted, which facilitates the emission of orange fluorescence. […] In Figure 6A, treatment with 4 led to a dose-dependent increase in EB-stained cells emitting red fluorescence and showing drastic alteration of cell morphology. […] Real-time anti-austerity potential tracking of 4 showing morphological changes in MIA PaCa-2 cells under NDM was monitored using a Nikon sCMOS camera oxford instrument, Hamamatsu Photonics/Ti-E, for 24 h. […]
Figure 6 (A) Morphological changes of MIA PaCa-2 cells induced by 4 in a nutrient-deprived medium (NDM). […] The cells were stained with ethidium bromide (EB) and acridine orange (AO), and photographed in the fluorescence (red and green) under phase contrast modes using a Nikon sCMOS camera oxford instrument, Hamamatsu Photonics/Ti-E. (B) Structure of bioactive compound 4. […]

How did the IC50 ([1]; read-out: IC50 in DMEM, HepG2, nutrient-rich DMEM, WST-8, absorbance 450 nm, mean of three wells) turn out when `CC[C@H](C)[C@H]1C(=O)NCCC(=O)N[C@H]([C@@H](C)CC)C(=O)N(C)[C@@H](C(C)C)C(=O)N[C@@H](C)C(=O)NCCC(=O)N[C@H](CC(C)C)C(=O)N(C)[C@H]([C@@H](C)CC)C(=O)O[C@H](C)[C@H](NC(=O)[C@@H](CC(C)C)N(C)C(=O)[C@@H](NC(=O)COC)C(C)C)C(=O)NCCC(=O)N[C@H](CC(C)C)C(=O)N1C` [Compound 4, theonellapeptolide IId] (Methoxyacetyl-V[dNMeL]T[βAla][dL][NMeI][βAla][d(aIle)][NMeV]A[βAla][dL][dNMeaIle]; ester 3-C) was run?
The IC50 was > 100 µM.

What about the IC50 ([1]; read-out: PC50 in NDM, HepG2, preferential cytotoxicity, nutrient-deprived medium (NDM), WST-8, mean of three wells) of the same molecule?
The IC50 was > 100 µM.

What about the IC50 ([2]; read-out: IC50 in DMEM, MCF7, nutrient-rich DMEM, WST-8, absorbance 450 nm, mean of three wells) of the same molecule?
The IC50 was > 100 µM.

And the IC50 ([2]; read-out: PC50 in NDM, MCF7, preferential cytotoxicity, nutrient-deprived medium (NDM), WST-8, mean of three wells)?
The IC50 was > 100 µM.

What about the “MIC, KR” value [3] of the same molecule?
The value was > 66 µM.

What about the “MIC, BC” value [4] of the same molecule?
The value was > 66 µM.

What about the “MIC, EC” value [5] of the same molecule?
The value was > 66 µM.

And the IC50 ([6]; read-out: IC50 in DMEM, MIA PaCa-2, nutrient-rich DMEM, WST-8, absorbance 450 nm, mean of three wells)?
Its IC50 is 38.2 µM.

And the IC50 ([6]; read-out: PC50 in NDM, MIA PaCa-2, preferential cytotoxicity, nutrient-deprived medium (NDM), WST-8, mean of three wells)?
The IC50 was 7.8 µM.

And the “EB/AO staining of cells” value [7]?
Its value is “exclusive red EB”.
